Assay results as given in ChEMBL document CHEMBL4014300, “Synthesis and biological evaluation of novel quinazoline-sulfonamides as anti-cancer agents” (Bioorg Med Chem Lett, 2017).
In brackets after ≈: the same amount, converted by molar mass. Activity calls are given as the source filed them. The calls are words filed in the database; no cut-off is given here.

Assays:
[1] = test system: FHC; test: Cytotoxicity against human FHC cells assessed as reduction in cell viability after 24 hrs by MTT assay; type: cell-based
[2] = test system: SK-OV-3; test: Cytotoxicity against human SKOV3 cells assessed as reduction in cell viability after 24 hrs by MTT assay; type: functional, cell-based; conditions: SK-OV-3, 24 h
[3] = test system: COLO 205; test: Cytotoxicity against human COLO205 cells assessed as reduction in cell viability after 24 hrs by MTT assay; type: functional, cell-based; conditions: COLO 205, 24 h
[4] = test system: DU-145; test: Cytotoxicity against human DU145 cells assessed as reduction in cell viability after 24 hrs by MTT assay; type: functional, cell-based; conditions: DU-145, 24 h
[5] = test system: U-937; test: Cytotoxicity against human U937 cells assessed as reduction in cell viability after 24 hrs by MTT assay; type: functional, cell-based; conditions: U-937, 24 h
[6] = test system: THP-1; test: Cytotoxicity against human THP1 cells assessed as reduction in cell viability after 24 hrs by MTT assay; type: functional, cell-based; conditions: THP-1, 24 h
[7] = test system: COLO 205; test: Cytotoxicity against human COLO205 cells assessed as reduction in cell viability at 100 ug/ml after 24 hrs by MTT assay; type: functional, cell-based
[8] = test system: DU-145; test: Cytotoxicity against human DU145 cells assessed as reduction in cell viability at 100 ug/ml after 24 hrs by MTT assay; type: functional, cell-based
[9] = test system: U-937; test: Cytotoxicity against human U937 cells assessed as reduction in cell viability at 100 ug/ml after 24 hrs by MTT assay; type: functional, cell-based
[10] = test system: FHC; test: Cytotoxicity against human FHC cells assessed as reduction in cell viability at 100 ug/ml after 24 hrs by MTT assay; type: cell-based
[11] = test system: SK-OV-3; test: Cytotoxicity against human SKOV3 cells assessed as reduction in cell viability at 100 ug/ml after 24 hrs by MTT assay; type: functional, cell-based
[12] = test system: THP-1; test: Cytotoxicity against human THP1 cells assessed as reduction in cell viability at 100 ug/ml after 24 hrs by MTT assay; type: functional, cell-based

COc1cc2nc(Cl)nc(NS(=O)(=O)c3ccc(C)cc3C)c2cc1OC
IC50 [1]: 73.1 mg/L (≈ 179 µM) | IC50 [2]: 25.8 mg/L (≈ 63.2 µM) | IC50 [3]: 49 mg/L (≈ 120 µM) | IC50 [4]: 47.8 mg/L (≈ 117 µM) | IC50 [5]: 65.1 mg/L (≈ 160 µM) | IC50 [6]: 40.4 mg/L (≈ 99.1 µM)

COc1cc2nc(Cl)nc(NS(C)(=O)=O)c2cc1OC
Activity [7]: inactive | IC50 [1]: 88.1 mg/L (≈ 277 µM) | IC50 [2]: 88 mg/L (≈ 277 µM) | Activity [8]: inactive | Activity [9]: inactive | IC50 [6]: 99.7 mg/L (≈ 314 µM)

COc1cc2nc(Cl)nc(NS(=O)(=O)c3cccc4c3OCO4)c2cc1OC
Activity [7]: inactive | IC50 [2]: 78.1 mg/L (≈ 184 µM) | Activity [10]: Non-Toxic | Activity [8]: inactive | IC50 [5]: 89.6 mg/L (≈ 211 µM) | IC50 [6]: 48.6 mg/L (≈ 115 µM)

COc1ccc(S(=O)(=O)Nc2nc(Cl)nc3cc(OC)c(OC)cc23)cc1C
IC50 [2]: 68.1 mg/L (≈ 161 µM) | IC50 [3]: 57 mg/L (≈ 134 µM) | Activity [10]: Non-Toxic | IC50 [4]: 39.5 mg/L (≈ 93.1 µM) | IC50 [5]: 41.1 mg/L (≈ 96.9 µM) | IC50 [6]: 79 mg/L (≈ 186 µM)

COc1cc2nc(Cl)nc(NS(=O)(=O)c3ccc(C)cc3)c2cc1OC
IC50 [3]: 91.3 mg/L (≈ 232 µM) | Activity [10]: Non-Toxic | IC50 [4]: 44.2 mg/L (≈ 112 µM) | IC50 [5]: 39.9 mg/L (≈ 101 µM) | IC50 [6]: 33.5 mg/L (≈ 85.2 µM) | Activity [11]: inactive

COc1cc2nc(N3CCCC3)nc(NS(=O)(=O)c3cccc(C(F)(F)F)c3)c2cc1OC
IC50 [2]: 22.1 mg/L (≈ 45.9 µM) | IC50 [3]: 78 mg/L (≈ 162 µM) | Activity [10]: Non-Toxic | IC50 [4]: 65.1 mg/L (≈ 135 µM) | IC50 [5]: 16 mg/L (≈ 33.2 µM) | IC50 [6]: 15.9 mg/L (≈ 32.9 µM)

COc1cc2nc(Cl)nc(NS(=O)(=O)c3cccs3)c2cc1OC
IC50 [1]: 98.7 mg/L (≈ 256 µM) | IC50 [2]: 19.1 mg/L (≈ 49.4 µM) | IC50 [3]: 27.5 mg/L (≈ 71.3 µM) | IC50 [4]: 16.4 mg/L (≈ 42.6 µM) | IC50 [5]: 10.1 mg/L (≈ 26.1 µM) | IC50 [6]: 11.2 mg/L (≈ 29.1 µM)

COc1cc2nc(N3CCOCC3)nc(NS(=O)(=O)c3cccc4c3OCO4)c2cc1OC
Activity [7]: inactive | Activity [10]: Non-Toxic | Activity [8]: inactive | Activity [9]: inactive | IC50 [6]: 71.6 mg/L (≈ 151 µM) | Activity [11]: inactive

COc1cc2nc(Cl)nc(NS(=O)(=O)Cc3cccc(I)c3)c2cc1OC
Activity [7]: inactive | Activity [10]: Non-Toxic | Activity [8]: inactive | IC50 [5]: 66.5 mg/L (≈ 128 µM) | IC50 [6]: 96.2 mg/L (≈ 185 µM) | Activity [11]: inactive

COc1cc2nc(N3CCCC3)nc(NS(=O)(=O)C3CC3)c2cc1OC
IC50 [1]: 66.6 mg/L (≈ 176 µM) | IC50 [2]: 17.6 mg/L (≈ 46.4 µM) | IC50 [3]: 10.2 mg/L (≈ 26.8 µM) | IC50 [4]: 11.1 mg/L (≈ 29.3 µM) | IC50 [5]: 6.43 mg/L (≈ 17 µM) | IC50 [6]: 9.13 mg/L (≈ 24.1 µM)

COc1ccc(S(=O)(=O)Nc2nc(Cl)nc3cc(OC)c(OC)cc23)cc1
Activity [7]: inactive | Activity [10]: Non-Toxic | Activity [8]: inactive | Activity [12]: inactive | Activity [9]: inactive | Activity [11]: inactive

COc1cc2nc(N3CCCC3)nc(NS(=O)(=O)c3cccs3)c2cc1OC
Activity [7]: inactive | Activity [10]: Non-Toxic | Activity [8]: inactive | Activity [12]: inactive | Activity [9]: inactive | Activity [11]: inactive

COc1cc2nc(Cl)nc(NS(=O)(=O)c3cccc4ccccc34)c2cc1OC
Activity [7]: inactive | IC50 [2]: 95.3 mg/L (≈ 222 µM) | Activity [10]: Non-Toxic | IC50 [4]: 63.6 mg/L (≈ 148 µM) | IC50 [5]: 35.3 mg/L (≈ 82 µM) | IC50 [6]: 82.4 mg/L (≈ 192 µM)

COc1cc2nc(N3CCOCC3)nc(NS(=O)(=O)c3ccc(C)cc3)c2cc1OC
IC50 [3]: 44.2 mg/L (≈ 99.4 µM) | Activity [10]: Non-Toxic | Activity [9]: inactive | IC50 [4]: 51.3 mg/L (≈ 115 µM) | IC50 [6]: 92.5 mg/L (≈ 208 µM) | Activity [11]: inactive

COc1cc2nc(Cl)nc(NS(=O)(=O)Cc3ccccc3)c2cc1OC
Activity [7]: inactive | Activity [10]: Non-Toxic | Activity [8]: inactive | Activity [12]: inactive | IC50 [5]: 91.7 mg/L (≈ 233 µM) | Activity [11]: inactive

COc1cc2nc(N3CCCC3)nc(NS(=O)(=O)c3ccc(C)cc3)c2cc1OC
IC50 [1]: 48.1 mg/L (≈ 112 µM) | IC50 [2]: 20 mg/L (≈ 46.7 µM) | IC50 [3]: 24.1 mg/L (≈ 56.3 µM) | IC50 [4]: 14.1 mg/L (≈ 33 µM) | IC50 [5]: 8.61 mg/L (≈ 20.1 µM) | IC50 [6]: 7.06 mg/L (≈ 16.5 µM)

COc1cc2nc(N3CCOCC3)nc(NS(=O)(=O)c3cccc(C(F)(F)F)c3)c2cc1OC
IC50 [2]: 50.5 mg/L (≈ 101 µM) | IC50 [3]: 61.8 mg/L (≈ 124 µM) | Activity [10]: Non-Toxic | IC50 [4]: 45.8 mg/L (≈ 91.8 µM) | IC50 [5]: 28.7 mg/L (≈ 57.6 µM) | IC50 [6]: 38.8 mg/L (≈ 77.9 µM)

COc1cc2nc(Cl)nc(NS(=O)(=O)c3ccccc3)c2cc1OC
IC50 [1]: 73 mg/L (≈ 192 µM) | IC50 [2]: 9.23 mg/L (≈ 24.3 µM) | IC50 [3]: 19 mg/L (≈ 50.1 µM) | IC50 [4]: 12.3 mg/L (≈ 32.5 µM) | IC50 [5]: 6.06 mg/L (≈ 16 µM) | IC50 [6]: 8.17 mg/L (≈ 21.5 µM)

COc1cc([C@@H]2c3cc4c(cc3[C@@H](O[C@@H]3O[C@@H]5CO[C@@H](C)O[C@H]5[C@H](O)[C@H]3O)[C@H]3COC(=O)[C@H]23)OCO4)cc(OC)c1O [ETOPOSIDE]
IC50 [1]: 49.3 mg/L (≈ 83.8 µM) | IC50 [2]: 3.84 mg/L (≈ 6.52 µM) | IC50 [3]: 5.12 mg/L (≈ 8.7 µM) | IC50 [4]: 6.17 mg/L (≈ 10.5 µM) | IC50 [5]: 2.89 mg/L (≈ 4.91 µM) | IC50 [6]: 4.42 mg/L (≈ 7.51 µM)

COc1cc2nc(N3CCOCC3)nc(NS(=O)(=O)C3CC3)c2cc1OC
IC50 [1]: 73.2 mg/L (≈ 186 µM) | IC50 [2]: 32.1 mg/L (≈ 81.5 µM) | IC50 [3]: 49.1 mg/L (≈ 124 µM) | IC50 [4]: 25.1 mg/L (≈ 63.5 µM) | IC50 [5]: 8.09 mg/L (≈ 20.5 µM) | IC50 [6]: 13.8 mg/L (≈ 34.9 µM)

COc1cc2nc(Cl)nc(NS(=O)(=O)C3CC3)c2cc1OC
Activity [7]: inactive | Activity [10]: Non-Toxic | Activity [8]: inactive | Activity [12]: inactive | Activity [9]: inactive | Activity [11]: inactive

COc1cc2nc(Cl)nc(NS(=O)(=O)c3cccc(C(F)(F)F)c3)c2cc1OC
IC50 [2]: 32.3 mg/L (≈ 72.1 µM) | IC50 [3]: 99 mg/L (≈ 221 µM) | Activity [10]: Non-Toxic | IC50 [4]: 23.1 mg/L (≈ 51.5 µM) | IC50 [5]: 59 mg/L (≈ 132 µM) | IC50 [6]: 36.4 mg/L (≈ 81.3 µM)
